Data set [1] relates to L. donovani axenic amastigotes. Nature of the data set: Resazurin reduction assay, L. donovani axenic amastigotes. The following applies: Leishmania donovani, read-out: percentage of inhibition, L. donovani axenic amastigotes. The data set is classed as cell-based.
Data set [2] deals with newly transformed schistosomula (NTS). Put plainly: Phenotypic screening on newly transformed schistosomula (NTS). In kind it is cell-based, Schistosoma mansoni. The following applies: for IC50: Schistosoma mansoni, 72 h, read-out: IC50, viability of NTS.
For data set [3], the system named is L. donovani promastigotes. Put plainly: Resazurin reduction assay, L. donovani promastigotes. In kind it is cell-based. The following applies: Leishmania donovani; 20 μM; read-out: percentage of inhibition, L. donovani promastigotes. A general note: The colour change of resazurin is a common sign of viable cells or microbes.
The subject of data set [4] is L. amazonensis amastigotes in primary mouse macrophages. The following applies: 10 μM, 3 days, toxic = toxic for macrophages.
Data set [5] has as its system S. mansoni adult worms. Put plainly: Phenotypic screening on S. mansoni adult worms. In kind it is cell-based, Schistosoma mansoni. To be noted: 72 h.
Data set [6] in a line: in vitro. The following applies: mouse, noninfected L929 fibroblast cells.
The test system of data set [7] is L. amazonensis promastigotes. Nature of the data set: Resazurin reduction assay, L. amazonensis promastigotes. In kind it is cell-based. The following applies: Leishmania amazonensis, read-out: percentage of inhibition, L. amazonensis promastigotes.
The nature of data set [8]: MTT viability assay in RPE cells. In kind it is cell-based, human. To be noted: human, retinal pigment epithelial (RPE) cells, read-out: percentage of RPE cell viability, 48 h. A general note: Tetrazolium assays rely on reduction of a dye to a coloured formazan, in cell work by metabolically active cells.
For data set [9], the system named is human retinal pigment epithelial (RPE) cells. Nature of the data set: MTT viability assay in RPE cells. The data set is classed as cell-based. To be noted: Homo sapiens, RPE, 48 h, read-out: IC50 in RPE cells (cell viability).
The test system of data set [10] is T. cruzi amastigotes and trypomastigotes. Nature of the data set: T. cruzi infection assay in L929 cells (beta-galactosidase Tulahuen strain). In kind it is cell-based, Trypanosoma cruzi.
Data set [11] relates to Leishmania. On the set-up: method as in PMID 28107750. To be noted: 10 and 20 μM; cited from earlier work.
In data set [12] the test system is S. mansoni schistosomula, adult worm pairs, and egg production. Set-up: method as in PMID 28107750. To be noted: 10 μM; cited from earlier work.
Where [13] appears, read: 40 μM, infected L929 cells, 96 h, toxic = L929 death.
Where [14] appears, read: 80 μM, infected L929 cells, 96 h, toxic = L929 death.
Setting [15] is: 160 μM, infected L929 cells, 96 h, toxic = L929 death.
Where [16] appears, read: Trypanosoma cruzi, infected L929 cells, 96 h, read-out: percentage of T. cruzi growth inhibition.
The mark [17] stands for this setting: Trypanosoma cruzi, infected L929 cells, 96 h, toxic = L929 death, read-out: percentage of T. cruzi growth inhibition.

Values joined by “and” are separate entries in the source; they are usually repeats but may differ in a detail not shown here. Equal entries are not always repeated.

In general, inhibition refers to how much of the control response was suppressed. One may read the IC50 as the concentration needed to halve the response being measured. The CC50 is the concentration giving 50% cytotoxicity. A low value points to greater toxicity to the cells. For orientation: viability means the share of living cells, or the viability signal relative to a control. Broadly, the EC50 is the concentration giving half of the maximal effect. As to `CC(C)(C)OC(=O)Nc1cccc(C(=O)/C=C/c2ccc(/C=C/C(=O)NO)cc2)c1` [Compound 4], the inhibition at 0.8 µM in [1] (0.8 μM) stood at 39.5 ± 2%; in [7] (0.8 μM), 10.5 ± 2.9%. The inhibition at 4 µM turned out to be 61.4 ± 4.3% in data set [1] (4 μM) and 95.7 ± 0.3% in [7] (4 μM). For the same compound, the inhibition at 20 µM turned out to be 93.6 ± 0.4% in [1], 95.9 ± 0.3% in [3] and 97.9 ± 0.4% in [7]. In addition, the “percentage of NTS activity, 72 h” value in [2] (1 μM) is 24% and 24.0 ± 0.0%; in data set [2] (10 μM), 100% and 100.0 ± 0.0%; in data set [2] (20 μM), 100% and 100.0 ± 0.0%. The IC50 in data set [2] came out at 1.29 µM; in data set [9], 15.6 µM. In addition, the “HCA outcome against intramacrophagic L. amazonensis amastigotes” value in data set [4] is “toxic”. The “percentage of activity (death induction), S. mansoni adult worms” value in data set [5] (10 μM) is 45.1 ± 3.9%; in data set [5] (20 μM), 63.8 ± 0%. The midpoint of cytotoxicity in [6], the CC50 at 96 h, lay at 5 µM. For the same compound, the viability at 48 h, 1 µM in data set [8] (1 μM) came to 75.7 ± 11.4%. In data set [8] (5 μM), the viability at 48 h, 5 µM was found to be 71.5 ± 12.8%. For the same compound, the viability at 48 h, 10 µM in data set [8] (10 μM) was determined as 50.2 ± 8.4%. The viability at 48 h, 25 µM in [8] (25 μM) came out at 40.4 ± 9.8%. For the same compound, the viability at 48 h, 50 µM in data set [8] (50 μM) amounted to 45.2 ± 6.6%. In addition, the “percentage of T. cruzi growth inhibition” value in data set [10] (10 μM, infected L929 cells, 96 h, toxic = L929 death) is listed as “toxic”; in data set [10] (20 μM, infected L929 cells, 96 h, toxic = L929 death), “toxic”; in data set [10] (setting [13]), “toxic”; in data set [10] (setting [14]), “toxic”; in [10] (setting [15]), “toxic”. For the same compound, the “selectivity index (SI), CC50/EC50” value in [10] (L929 CC50 / T. cruzi EC50) stood at 1.25. In data set [10] (Trypanosoma cruzi, L929, 96 h, infected L929 cells, 96 h, mean ± SD, read-out: EC50, growth of T. cruzi amastigotes and trypomastigotes), the EC50 was 4 ± 0.07 µM. Moreover, in [10] (setting [16]), the inhibition at 1.25 µM amounted to 0%. The inhibition at 2.5 µM in data set [10] (setting [17]) worked out at 0%. Also, the inhibition at 5 µM in data set [10] (setting [17]) was 85%.

As to `O=C(CCCCCCC(=O)Nc1ccccc1)NO` [SAHA], the “effect in Leishmania” value in data set [11] is on record as “ineffective and/or exhibited too high toxicity for macrophages”. For the same compound, the “effects in schistosomula, adult worm pairs, and egg production” value (“effects in schistosomula” for short) in data set [12] is given as “only moderate effects”.

On to `C/C=C1\NC(=O)[C@H]2CSSCC/C=C/[C@H](CC(=O)N[C@H](C(C)C)C(=O)N2)OC(=O)[C@H](C(C)C)NC1=O` [romidepsin], for which the “effect in Leishmania” value in data set [11] is reported as “ineffective and/or exhibited too high toxicity for macrophages”. Also, in data set [12], the “effects in schistosomula” value is recorded as “only moderate effects”.

With `O=C(CCCCSc1nc(-c2ccc(-c3ccccc3)cc2)cc(=O)[nH]1)NO` [Compound 1], the inhibition at 20 µM in [1] was found to be 29 ± 14%; in [7] it was 2.1 ± 3.2%; in data set [10] (Trypanosoma cruzi, 20 μM, infected L929 cells, 96 h, toxic = L929 death, read-out: percentage of T. cruzi growth inhibition), 0%. The “percentage of NTS activity, 72 h” value in data set [2] (10 μM) amounted to 29.3 ± 0.9%; in data set [2] (20 μM) it was 43.3 ± 1.9%. Moreover, the IC50 in data set [2] was more than 20 µM. Moreover, in data set [4], the “HCA outcome against intramacrophagic L. amazonensis amastigotes” value is “toxic”. Besides, the midpoint of cytotoxicity in [6], the CC50 at 96 h, lay at 20 µM. The “percentage of T. cruzi growth inhibition” value is reported as “toxic” in data set [10] (setting [13]), “toxic” in data set [10] (setting [14]) and “toxic ^e” in [10] (setting [15]). The inhibition at 1.25 µM in [10] (setting [16]) was found to be 0%. For the same compound, in [10] (setting [17]), the inhibition at 2.5 µM came to 0%. Further, in data set [10] (setting [17]), the inhibition at 5 µM came out at 0%. In addition, the inhibition at 10 µM in data set [10] (Trypanosoma cruzi, 10 μM, infected L929 cells, 96 h, toxic = L929 death, read-out: percentage of T. cruzi growth inhibition) is 0%. Besides, the “EC50, growth of T. cruzi amastigotes and trypomastigotes” value in [10] (infected L929 cells, 96 h, mean ± SD) was “inactive”.

In the case of `O=C(/C=C/c1cccc(S(=O)(=O)Nc2ccccc2)c1)NO` [belinostat], the “effect in Leishmania” value in [11] is “ineffective and/or exhibited too high toxicity for macrophages”. Besides, in data set [12], the “effects in schistosomula” value is “only moderate effects”.

On to `Cc1[nH]c2ccccc2c1CCNCc1ccc(/C=C/C(=O)NO)cc1` [panobinostat], for which the “effect in Leishmania” value in [11] is listed as “ineffective and/or exhibited too high toxicity for macrophages”. For the same compound, in [12], the “effects in schistosomula” value is listed as “only moderate effects”.

These data come from paper PMC9274761, “Effects of Structurally Different HDAC Inhibitors against Trypanosoma cruzi, Leishmania, and Schistosoma mansoni” (ACS Infectious Diseases, 2022).
